Entries after “also recorded” stand apart in the source; their conditions may differ.

The values that follow come from article PMC7228129, “Evaluation of Developmental Toxicity, Developmental Neurotoxicity, and Tissue Dose in Zebrafish Exposed to GenX and Other PFAS” (Environmental Health Perspectives, 2020).

For the data set, the system named is zebrafish. Kind of data set: Developmental toxicity (DevTox) assay. The note with it: for Developmental toxicity outcome / EC50: scored 6 dpf; for DevTox assay phenotype: Table 5 summary, this study (some rows also list literature); for EC50: Hill fit. The class given is in vivo, Danio rerio. How it is done:
At 0 dpf, zebrafish embryos were bleached as previously described ([Tal et al. 2017]). A single embryo at the dome-to-epiboly stages ([Kimmel et al. 1995]) was placed into each individual well of a 96-well plate containing a 40-μm nylon mesh filter (Millipore, Catalog No. MANMN4010) with 400μL of 10% Hanks’ balanced salt solution (HBSS) per well. Filter inserts containing zebrafish embryos were transferred to 96-well culture trays (Millipore, Catalog No. MAMCS9610) containing 250μL of 10% HBSS ([Westerfield 2007]) and 1μL of 250× working solutions per well. A final concentration of 0.4% DMSO was used for all exposure groups and as a vehicle control. In the case of GenX Free Acid in Study 2 (Figure 1), DI water was used as a vehicle control. Daily, from 1–5 dpf, plates underwent 100% media changes to refresh chemical dosing solutions by blotting (Brandel; Catalog No. FPXLR-196) and transferring mesh inserts containing zebrafish to new bottom plates (Millipore; Catalog No. MAMCS9610). To minimize evaporation, plates were sealed (Biorad; Catalog No. MSA5001) and wrapped with parafilm. Plates were maintained on a 14 h:10 h light cycle at 26.0°C and scored daily for death, malformations, hatching, and swim bladder inflation. At 6 dpf, plates were evaluated by two independent observers and DevTox or DNT assays were performed or media and tissue were collected for analytical chemistry analyses as described below.
In Study 1 (Figure 1), zebrafish were exposed, as described in the “Chemical Exposures” section, to 0.04, 0.1, 0.4, 1.1, 3.1, 9.3, 27.2, or 80.0μM PFOS, PFOA, PFHxS, PFHxA, or ADONA, or 0.4% DMSO. Six 96-well plates were tested with a single chemical concentration included on each microtiter plate. Subsequently, as part of Study 1, zebrafish were exposed to 0.04, 0.1, 0.4, 1.1, 3.1, 9.3, 27.2, or 80.0μM PFESA1, or 0.4% DMSO. In Study 2, GenX Free Acid diluted in DI water was tested by exposing zebrafish to 0.04, 0.1, 0.4, 1.1, 3.1, 9.3, 27.2, or 80.0μM of the compound or DI water. […] Zebrafish were exposed to 1.7, 3.1, 5.5, 9.8, 17.6, 31.4, 56.0, or 100.0μM of PFBS, PFHxS, PFHpS, or PFOS or 0.4% DMSO. Subsequently, zebrafish were exposed to 1.7, 3.1, 5.5, 9.8, 17.6, 31.4, 56.0, or 100.0μM PFPeS, or 0.4% DMSO. Chlorpyrifos was used as positive control for malformations ( 8.0μM ) and lethality ( 80.0μM ) ([Padilla et al. 2012]; [Tal et al. 2017]). To conduct DevTox assay assessments, at 6 dpf, two independent observers evaluated zebrafish larvae for survival, hatching, swim bladder inflation, and malformations, including curved body axis, shortened trunk, pericardial edema, yolk sac edema, necrotic yolk sac, pectoral fin abnormalities and head/jaw abnormalities. Directly after assessments, data were reviewed and, in the case of discrepancies, consensus calls were reached. Toxicity values were assigned to descriptive data (i.e., normal=0 , abnormal=20 , severely abnormal=50 , and dead=100 ), modified from a previously described approach ([Padilla et al. 2012]). Briefly, animals with a single malformation were scored as abnormal, whereas animals with ≥2 malformations were scored as severely abnormal.
For the DevTox assay, a Kruskal-Wallace nonparametric one-way analysis of variance (ANOVA) with a Dunn’s multiple comparison test was used to detect differences between exposure groups (* p<0.05 , ** p<0.0001 ) and LOEC values were determined. If a test for linear trend was significant ( p<0.05 ), with developmental toxicity observed at the highest concentration tested, nonlinear regression was performed with a Hill slope curve fitting for half maximal effective concentration ( EC50 ) value determinations.

Where [1] appears, read: Study 1, 0.04–80.0 μM daily 0–5 dpf, 0.4% DMSO.
Setting [2] is: Danio rerio, Study 1, 0.04–80.0 μM daily 0–5 dpf, 0.4% DMSO.
Setting [3] is: Danio rerio, Study 3, 1.7–100.0 μM daily 0–5 dpf, 0.4% DMSO.

For `O=C(O)C(F)(F)C(F)OC(F)(F)C(F)(F)C(F)(F)OC(F)(F)F` (centres unmarked) [ADONA, 4,8-Dioxa-3H-perfluorononanoate], the DevTox assay phenotype result is given as “Negative^a”. Also, under setting [1], the “Developmental toxicity outcome” value is on record as “did not cause concentration-dependent effects on survival or development; also recorded: failed to provoke developmental toxicity or developmental neurotoxicity; also recorded: negative”.

Regarding `O=C(O)C(F)(OC(F)(F)C(F)(F)C(F)(F)F)C(F)(F)F` (centres unmarked) [GenX Free Acid, Perfluoro-2-propoxypropanoic acid], the DevTox assay phenotype result is reported as “Negative^a”. The “Developmental toxicity outcome” value (Study 2, 0.04–80.0 μM in DI water daily 0–5 dpf) is “negative; also recorded: failed to provoke developmental toxicity or developmental neurotoxicity”.

In the case of `O=S(=O)(O)C(F)(F)C(F)(F)OC(F)(C(F)(F)F)C(F)(F)OC(F)=C(F)F` (centres unmarked) [PFESA1, Perfluoro-3,6-dioxa-4-methyl-7-octene-1-sulfonic acid], the DevTox assay phenotype result is recorded as “Negative^a”. Besides, the “Developmental toxicity outcome” value under setting [1] is “did not cause concentration-dependent effects on survival or development; also recorded: failed to provoke developmental toxicity or developmental neurotoxicity; also recorded: negative”.

Regarding `O=C(O)C(F)(F)C(F)(F)C(F)(F)C(F)(F)C(F)(F)F` [PFHxA, Perfluorohexanoic acid], the DevTox assay phenotype result is “Negative”. The “Developmental toxicity outcome” value under setting [1] is recorded as “did not cause concentration-dependent effects on survival or development; also recorded: no observed developmental toxicity identified at the highest concentration tested”.

As to `O=S(=O)(O)C(F)(F)C(F)(F)C(F)(F)C(F)(F)C(F)(F)C(F)(F)F` [PFHxS, Perfluorohexanesulfonic acid], the DevTox assay phenotype entry was “Positive”. Also, the response under setting [2] was half-maximal at 92.7 µM (EC50). This molecule also had an EC50 under setting [3] of 228 µM. The “Developmental toxicity outcome” value under setting [1] was “same morphological phenotypes as PFOS”.

Regarding `O=C(O)C(F)(F)C(F)(F)C(F)(F)C(F)(F)C(F)(F)C(F)(F)C(F)(F)F` [PFOA, Perfluoro-n-octanoic acid], the DevTox assay phenotype result is reported as “Negative”. Further, the “Developmental toxicity outcome” value under setting [1] was “did not cause concentration-dependent effects on survival or development; also recorded: negative”.

As for `O=S(=O)(O)C(F)(F)C(F)(F)C(F)(F)C(F)(F)C(F)(F)C(F)(F)C(F)(F)C(F)(F)F` [PFOS, Perfluorooctanesulfonic acid], the DevTox assay phenotype entry was “Positive”. In addition, under setting [2], the midpoint of the response, the EC50, lay at 7.5 µM. Under setting [3], this molecule displayed an EC50 of 28.2 µM. Under setting [1], the “Developmental toxicity outcome” value was “failed swim bladder inflation and ventroflexion of the tail”; the EC50 is 7.54 µM. Further, the EC50 (Study 3, 1.7–100.0 μM daily 0–5 dpf, 0.4% DMSO) was 28.2 µM.
